Data on six compounds can be found in patent US8440649B2 (priority 2009, dated 2013).

The structures appear in SMILES notation.

Series [1] relates to SARS CoV. To be noted: Vero E6 cells.
Series [2] relates to SARS CoV. As to the kind of experiment: in vitro. To be noted: African green monkey.
A short description of a further series: in vitro. To be noted: African green monkey.
Series [3] concerns SARS CoV. Kind of series: microbe, parasite or virus in culture. To be noted: Severe acute respiratory syndrome coronavirus, Vero C1008, read-out: Anti-SARS CoV IC50.

For `COc1cc2c3c(c4cc(OC)c(OC)cc4c2cc1OC)CN1CCCC1C3` (stereo not drawn) [Compound 1], the “reduction of levels of CPEs caused by SARS CoV infection (in words)” value (from here on “reduction of levels of CPEs caused”) in the series on SARS CoV [1] is “effectively reduced”. The “cytotoxicity per se (in words)” value with Vero E6 cells is reported as “low cytotoxicity”. In addition, in the series on SARS CoV [2], the selectivity ratio amounted to 23.3. The compound also displayed a CC50 in “in vitro” of 420 nM. Further, in the series on SARS CoV [3], the IC50 was found to be 18 nM.
As for `COc1cc2c3c(c4cc(OC)c(OC)cc4c2cc1OC)CN1CCCCC1C3` (stereo not drawn) [Compound 11], the “reduction of levels of CPEs caused” value in the series on SARS CoV [1] was “effectively reduced”. The “cytotoxicity per se (in words)” value in the series with Vero E6 cells is on record as “low cytotoxicity”.
For `COc1cc2c3c(c4cc(OC)c(OC)cc4c2cc1OC)C(O)C1CCCCN1C3` (stereo not drawn) [Compound 12], the selectivity ratio in the series on SARS CoV [2] is over 7.1. Also, the CC50 in “in vitro” was over 100 nM. The IC50 in the series on SARS CoV [3] turned out to be 14 nM.
In the case of `COc1cc2c3c(c4cc(OC)c(OC)cc4c2cc1OC)C[N+]1([O-])CCCCC1C3` (stereo not drawn) [Compound 18], the selectivity ratio with SARS CoV [2] is over 56. In addition, the 50% inhibitory concentration (IC50) in the series on SARS CoV [3] was under 100 nM.
With `COc1cc2c3cc(OC)c(OC)cc3c3c[n+]4c(cc3c2cc1OC)CCCC4.[Br-]` [Compound 19], the “reduction of levels of CPEs caused” value in the series with SARS CoV [1] was “effectively reduced”. Besides, the “cytotoxicity per se (in words)” value with Vero E6 cells is “low cytotoxicity”.
As to `COc1ccc2c3c(c4cc(OC)c(OC)cc4c2c1)CN1CCCC1C3OC(C)=O` (stereo not drawn) [Compound 32], the melting point was in the range of 196 to 198 °C.
